Experimental data published in the NIST ThermoML archive (doi:10.1016/j.fluid.2009.06.018).

What was measured:
[1] = refractive index (Na D-line) (dimensionless); settings: 298.15 K; 101.33 kPa; Liquid; Standard Abbe refractometry
[2] = 298.15 K; 101.33 kPa; Liquid; Vibrating tube method
[3] = xn = mol fraction of the nth substance listed; settings: 298.15 K, 101 kPa, Liquid, Vibrating tube method
[4] = excess molar enthalpy (molar enthalpy of mixing); xn = mol fraction of the nth substance listed; settings: 298.15 K, 101 kPa, Liquid, Flow calorimetry

CC(Cl)CCl (centres undefined) [1,2-dichloropropane]
Settings	mass density [kg/m3]	refractive index
[1]	–	1.43656
[2]	1149.03	–

CCOCCOCCOCCO [2-(2-(2-ethoxyethoxy)ethoxy)ethanol]
Settings	mass density [kg/m3]	refractive index
[1]	–	1.43623
[2]	1016.19	–

CCOCCOCCOCCO [2-(2-(2-ethoxyethoxy)ethoxy)ethanol] + CC(Cl)CCl
Settings	excess molar enthalpy [kcal/mol]	mass density [kg/m3]
[3], x2 = 0.0522	–	1020.53
[3], x2 = 0.1019	–	1024.84
[3], x2 = 0.1497	–	1029.19
[3], x2 = 0.2027	–	1034.17
[3], x2 = 0.2538	–	1039.19
[3], x2 = 0.3014	–	1044.06
[3], x2 = 0.3475	–	1048.98
[3], x2 = 0.4037	–	1055.22
[3], x2 = 0.4507	–	1060.69
[3], x2 = 0.5006	–	1066.74
[3], x2 = 0.553	–	1073.37
[3], x2 = 0.6023	–	1079.92
[3], x2 = 0.6499	–	1086.58
[3], x2 = 0.7036	–	1094.48
[3], x2 = 0.7524	–	1102.1
[3], x2 = 0.8009	–	1110.06
[3], x2 = 0.8494	–	1118.49
[3], x2 = 0.8988	–	1127.79
[3], x2 = 0.9495	–	1138.04
[4], x2 = 0.067	-0.0506	–
[4], x2 = 0.101	-0.0657	–
[4], x2 = 0.164	-0.104	–
[4], x2 = 0.195	-0.121	–
[4], x2 = 0.253	-0.145	–
[4], x2 = 0.308	-0.1638	–
[4], x2 = 0.36	-0.1773	–
[4], x2 = 0.41	-0.1859	–
[4], x2 = 0.457	-0.1887	–
[4], x2 = 0.501	-0.1888	–
[4], x2 = 0.544	-0.1854	–
[4], x2 = 0.604	-0.174	–
[4], x2 = 0.66	-0.1571	–
[4], x2 = 0.695	-0.144	–
[4], x2 = 0.745	-0.122	–
[4], x2 = 0.807	-0.0893	–
[4], x2 = 0.85	-0.0656	–
[4], x2 = 0.904	-0.036	–
[4], x2 = 0.954	-0.0131	–

CCCOCCOCCO [2-(2-propoxyethoxy)ethanol]
Settings	mass density [kg/m3]	refractive index
[1]	–	1.42727
[2]	962.74	–

CCCOCCOCCO [2-(2-propoxyethoxy)ethanol] + CC(Cl)CCl
Settings	excess molar enthalpy [kcal/mol]	mass density [kg/m3]
[3], x2 = 0.054	–	969.58
[3], x2 = 0.105	–	976.29
[3], x2 = 0.1473	–	982.03
[3], x2 = 0.203	–	989.81
[3], x2 = 0.2494	–	996.53
[3], x2 = 0.3	–	1004.1
[3], x2 = 0.3488	–	1011.66
[3], x2 = 0.4014	–	1020.11
[3], x2 = 0.4516	–	1028.46
[3], x2 = 0.5005	–	1036.91
[3], x2 = 0.5504	–	1045.89
[3], x2 = 0.5995	–	1055.07
[3], x2 = 0.6509	–	1065.09
[3], x2 = 0.7009	–	1075.28
[3], x2 = 0.752	–	1086.18
[3], x2 = 0.8015	–	1097.29
[3], x2 = 0.851	–	1109.05
[3], x2 = 0.9018	–	1121.84
[3], x2 = 0.9476	–	1134.08
[4], x2 = 0.06	-0.0351	–
[4], x2 = 0.119	-0.0599	–
[4], x2 = 0.147	-0.0709	–
[4], x2 = 0.202	-0.0895	–
[4], x2 = 0.255	-0.103	–
[4], x2 = 0.306	-0.1117	–
[4], x2 = 0.355	-0.116	–
[4], x2 = 0.402	-0.1173	–
[4], x2 = 0.447	-0.1153	–
[4], x2 = 0.511	-0.107	–
[4], x2 = 0.552	-0.0989	–
[4], x2 = 0.592	-0.0897	–
[4], x2 = 0.648	-0.0737	–
[4], x2 = 0.702	-0.0561	–
[4], x2 = 0.753	-0.0387	–
[4], x2 = 0.802	-0.0225	–
[4], x2 = 0.848	-0.00722	–
[4], x2 = 0.907	0.00621	–
[4], x2 = 0.948	0.00903	–

COCCOCCOCCO [2-[2-(2-methoxyethoxy)ethoxy]ethanol]
Settings	mass density [kg/m3]	refractive index
[1]	–	1.43673
[2]	1043.3	–
